Values quoted from earlier work as cited in patent US12582665B2, “Topical composition” (FUTURA MEDICAL DEVELOPMENTS LIMITED, priority 2020, dated 2026).

Columns and labels:
[1] = not given; remark: listed apart in the source

In the case of `C=C(C)[C@@H]1CCC(C)=C[C@H]1c1c(O)cc(CCCCC)cc1O` [CBD, cannabidiol], the “log P” value is listed as “~+6.00” and the “Solubility in propylene glycol” value [1] is listed as “exceeding 10 % w/w”.
